Read-outs that look alike come from different tables or passages of the source.
Columns and labels:
Type in all cases: cell-based
human sebocytes = assay: Sebocyte assay: 14C-acetate label remaining in sebocytes (sebum suppression in vitro); conditions: for inhibition at 0.001 %: 0.001% test agent; for inhibition at 0.01 %: 0.01% test agent; for sebum suppression, result in words: conclusion drawn from Tables 1-5
Method: Secondary cultures of human sebocytes obtained from an adult […] were grown in 48-well or 96-well tissue culture plates (Costar Corp.; Cambridge, Mass.) until three days post-confluence. Sebocyte growth medium consisted of Clonetics Keratinocyte Basal Medium (KBM) supplemented With 14 μg/ml bovine pituitary extract, 0.4 μ/ml hydrocortisone, 5 μ/ml insulin, 10ng/ml epidermal growth factor, 1.2×10^−10 M cholera toxin, 100 units/ml penicillin, and 100 μg/ml streptomycin. All cultures were incubated at 37° C. in the presence of 7.5% CO2. Medium was changed three times per week.
On the day of experimentation, the growth medium was removed and the sebocytes washed three times with sterile Dulbecco's Modified Eagle Medium (DMEM; phenol red free). Fresh DMEM was added to each sample (triplicates) with 1-5 microliter of test agent solubilized in ethanol. Controls consisted of addition of ethanol alone. Each plate was returned to the incubator for 20 hours followed by the addition of ^14C-acetate buffer (5 mM final concentration, 56 mCi/mmol specific activity). Sebocytes were returned to the incubator for four hours afterwhich each culture was rinsed three times with phosphate buffered saline to remove unbound label. Radioactive label remaining in the sebocytes was harvested and counted using a Beckman scintillation counter. Statistical significance (p value) was calculated using student's t-test. Phenol Red, a known sebum suppressive agent, was employed as a positive control.

[1] = system: Neonatal human dermal fibroblasts; assay: Procollagen I production by fibroblasts, slot blot
Method: Neonatal human dermal fibroblasts were purchased from Clonetics Corp., San Diego, Calif. All materials for cell culture were purchased from Life Technologies, NY and used in passages 5-10. Cells were seeded at a density of approximately 7,500/well in the inner 48 wells of a 96-well plate in a medium containing DMEM (Dulbecco's Modified Eagle's Medium), high-glucose supplemented with 2 mM L-glutamine, 10% fetal bovine serum, and antibiotic and antimycotic solutions). Cells were then grown to confluence for 2 days. At confluence, the medium was removed and cells were washed with serum-free DMEM, and each well dosed with 200 μl of a solution of a test compound in serum-free DMEM. Each dosing was replicated in the total of six wells. […] After 24 hours, the test compound solution or the control solution was removed and cells redosed with 100 μl of a solution of a test compound in serum-free DMEM. After 24 hours, the test compound solution or the control solution was removed and stored over the weekend at 4° C. with protease inhibitor (Aprotinin from Sigma) in a ratio of aprotinin to water of 1:200. The test compound solution was then diluted in DMEM (approximately 20 μl sample in 200 μl DMEM).
Nitrocellulose membrane and 3 sheets of filter paper were soaked in TRIS buffered saline (TBS, pH 7.3.). BioRad slot blot apparatus (BioRad Labs, CA) was set up with filter paper on bottom, membrane on top, tightened. […] TBS was added per well. Vacuum was used to suck wells through membrane. The diluted test compound solution or control was vortexed, then 100 μl was loaded per well and gravity dried. Procollagen from the test solution was bound to the membrane at this point in the procedure. Membrane was removed from the apparatus, excess cut off, and bottom right corner notched for orientation. The membrane was placed in blocking solution (5% milk powder in Dulbecco's phosphate buffered saline) overnight at 4° C., with shaking. The membrane was then incubated for 1.5 hrs at room temperature with 1.5 mL Rat Anti-Human Procollagen Amino-Terminal Ab (Chemicon MAB1912) in TBS with 0.1% BSA (ratio of antibody to buffer/BSA was 1:100) in a sealed bag with shaking. The membrane was then removed; washed 3 times for 5 minutes in TBS/0.1% Tween. The membrane was then incubated for 1 hour at room temperature in 2 mL of Biotinylated Anti-Rat Peroxidase-Conjugated Ab (Vector Labs) in TBS with 0.1% BSA (ratio of antibody to buffer/BSA was 1:1000) in a sealed bag with shaking.
The membrane was washed 3 times for 5 minutes in TBS/0.1%Tween. 3 mL PBS was incubated with 30 μl each of solutions A and B from Vectastain Kit for 30 minutes. The membrane was placed in the resulting solution for 30 minutes in a sealed bag with shaking. The membrane was then removed and washed twice for 5 minutes in TBS/0.1% Tween. The membrane was then stained using the following solution:
12.5 mg 3-amino 9-ethyl carbazole (Sigma)
3.125 (approximately) mL DMF (N,N-dimethylformamide, from Sigma)
The membrane was stained until color developed and the reaction stopped with 2 washes for 10 minutes in tap water. A transparency of the blot was prepared using a color copier. Blot was scanned on Bio-Rad GS-700 Image Analysis densitometer and volume (OD*mm^2) of color/slot determined using molecular analysis software. Fold increase was calculated as a ratio of densitometer reading for cells treated with a test compound over control.

[2] = system: Neonatal human dermal fibroblasts; assay: Glycosaminoglycan synthesis by fibroblasts, Alcian Blue dot blot; conditions: Table 7, glycosaminoglycans
Method: Neonatal human dermal fibroblasts were seeded at a density of approximately 50,000/well in a 12-well plate in a medium containing DMEM (high glucose supplemented with 2 mM L-glutamine, 10% fetal bovine serum, antibiotic and antimycotic solutions). Cells were then grown to confluence for 2 days. At confluence, each well was rinsed in serum-free DMEM and the cells dosed with test compounds (in triplicate) in 750 μL of serum-free DMEM. After 24 hours, this medium was aspirated and the treatment step repeated. After a second 24-hour period, this medium, containing the soluble GAGs, was collected and frozen until analysis.
A positively-charged Zeta Probe membrane was soaked in sterile water and placed into the Dot-Blot Apparatus (both Bio-Rad Labs, Hercules, Calif.). 100 μL of water was applied to each well and pulled through using a vacuum. After thawing, 100 μL of test solution samples or standards (Hyaluronic acid or Chondroitin Sulfate from bovine trachea, Sigma, St. Louis, Mo.) was applied to the membrane and allowed to gravity filter (about 1.5-2 hours). GAGs were now bound to membrane. The membrane was blocked in 3% w/v fatty acid free bovine serum albumin (Sigma) in water for one hour. A dye solution of 0.5% w/v Alcian Blue dye (ICN Biochemicals, Cleveland, Ohio.) in 3% acetic acid, pH approximately 2.3, was made. The membrane was washed twice in distilled water and then stained in the dye solution on a rotary shaker for 15 minutes. The dye was poured off and the membrane destained twice for 15 minutes each time in 3% acetic acid. The membrane was rinsed in water and left to dry overnight. The blot was scanned on Bio-Rad GS-700 Image Analysis Densitometer and volume (OD*mm^2) of color/slot determined using molecular analyst software. Fold increase over control was calculated as a ratio of densitometer reading for cells treated with a test compound over control.

[3] = Homo sapiens, 20 h, Table 3A, 20 hour incubation, 96 well plate, read-out: % Reduction
[4] = Table 6B, 0.0046% test compound
[5] = Homo sapiens, 0.5 h, Table 4, 30 minute incubation, 48 well plate, read-out: % Reduction
[6] = Table 6B, positive control, concentration not given
[7] = positive control, concentration not given

## CCCCCCCCCCCCCC(=O)OC(C)C [Isopropyl Myristate, Isopropyl myristate]
Human sebocytes; [3]
  inhibition at 0.001 %: -6.3%
  inhibition at 0.01 %: 4%
Human sebocytes
  sebum suppression, result in words: not an effective sebum suppressor

## CC(C)CCCCCCCCCCOC(=O)c1ccccc1 [Isotridecyl Benzoate]
[1]; Table 6B, 0.003% test compound
  Average OD Reading: 2.534
  Fold increase over control: 1.3 fold
[1]; Table 6B, 0.030% test compound
  Average OD Reading: 2.669
  Fold increase over control: 1.4 fold
[2]; 0.003% test compound
  Average OD Reading: 0.22
  Fold increase over control: 0.8 fold
[2]; 0.03% test compound
  Average OD Reading: 0.38
  Fold increase over control: 1.5 fold
Human sebocytes; Homo sapiens, 20 h, Table 5, 0.000039% test agent, 20 hour incubation, 48 well plate, read-out: % Reduction
  inhibition at 3.9e-05 %: 36.3%
Human sebocytes; Homo sapiens, 20 h, Table 5, 0.00039% test agent, 20 hour incubation, 48 well plate, read-out: % Reduction
  inhibition at 0.00039 %: 52.2%
Human sebocytes; Homo sapiens, 20 h, Table 5, 0.0039% test agent, 20 hour incubation, 48 well plate, read-out: % Reduction
  inhibition at 0.0039 %: 41.8%

## CCCC(=O)OCCCCCCCCCCC(C)C [Isotridecyl Butyrate]
Human sebocytes; Homo sapiens, 20 h, Table 3C, 0.00027% test agent, 20 hour incubation, 48 well plate, read-out: % Reduction
  inhibition at 0.00027 %: 4.1%
Human sebocytes; Homo sapiens, 20 h, Table 3C, 0.0027% test agent, 20 hour incubation, 48 well plate, read-out: % Reduction
  inhibition at 0.0027 %: 17.2%
Human sebocytes
  sebum suppression, result in words: not effective sebum suppressive agents

## CCCCCCCCCC(=O)OCCCCCCCCCCC(C)C [Isotridecyl Decanoate]
Human sebocytes
  sebum suppression, result in words: not effective sebum suppressive agents

## CCCCC/C=C\C/C=C\CCCCCCCC(=O)OCCCCCCCCCCC(C)C [Isotridecyl Linoleate]
[1]; [4]
  Average OD Reading: 2.346
  Fold increase over control: 1.2 fold
[1]; Table 6B, 0.046% test compound
  Average OD Reading: 2.4585
  Fold increase over control: 1.3 fold
[2]; 0.0046% test compound
  Average OD Reading: 0.40
  Fold increase over control: 1.5 fold
[2]; 0.046% test compound
  Average OD Reading: 0.29
  Fold increase over control: 1.1 fold
Human sebocytes; Homo sapiens, 20 h, Table 5, 0.000046% test agent, 20 hour incubation, 48 well plate, read-out: % Reduction
  inhibition at 4.6e-05 %: 57.3%
Human sebocytes; Homo sapiens, 20 h, Table 5, 0.00046% test agent, 20 hour incubation, 48 well plate, read-out: % Reduction
  inhibition at 0.00046 %: 50.9%
Human sebocytes; Homo sapiens, 20 h, Table 5, 0.0046% test agent, 20 hour incubation, 48 well plate, read-out: % Reduction
  inhibition at 0.0046 %: 44.9%

## CCCCCCCCC(=O)OCCCCCCCCCCC(C)C [Isotridecyl Nonanoate]
Human sebocytes; Homo sapiens, 20 h, Table 3B, 20 hour incubation, 48 well plate, read-out: % Reduction
  inhibition at 0.001 %: 0.7%
Human sebocytes; Homo sapiens, 20 h, Table 3B, 0.1% test agent, 20 hour incubation, 48 well plate, read-out: % Reduction
  inhibition at 0.1 %: 0.8%
Human sebocytes
  sebum suppression, result in words: not effective sebum suppressive agents

## CC(C)CCCCCCCCCCOC(=O)c1ccccc1O [Isotridecyl salicylate]
Human sebocytes; Homo sapiens, 0.5 h, Table 4, 0.005% test agent, 30 minute incubation, 48 well plate, read-out: % Reduction
  inhibition at 0.005 %: 24.6%
Human sebocytes; [5]
  inhibition at 0.01 %: 48.9%
Human sebocytes
  sebum suppression, result in words: effective in suppressing sebum

## O=S1(=O)OC(c2ccc(O)cc2)(c2ccc(O)cc2)c2ccccc21 [Phenol Red]
Human sebocytes; Homo sapiens, 20 h, Table 1, 20 hour incubation, 48 well plate, read-out: % Reduction
  inhibition at 0.001 %: 19.6%
Human sebocytes; [3]
  inhibition at 0.001 %: 14%
  inhibition at 0.01 %: 71.2%

## CCCCCCCCCCCCCOC(=O)c1ccccc1O [Straight Chain TDS, tridecyl salicylate]
Human sebocytes; [5]
  inhibition at 0.01 %: 1.3%

## TGF-b
[1]; Table 6A, test compound 0.01%, densitometer volume (OD*mm^2)
  Average OD Reading: 6.787
[1]; Table 6A, test compound 0.01%, ratio of densitometer reading over control
  Fold increase over control: 1.9 fold
[1]; [6]
  Average OD Reading: 4.099
  Fold increase over control: 2.1 fold
[2]; [7]
  Average OD Reading: 0.86
  Fold increase over control: 3.3 fold

Reference: patent US6599936B1, “Anti-sebum skin care cosmetic compositions containing branched esters” (Unilever Home & Personal Care USA division of Conopco, Inc., priority 1999, dated 2003)
